Experimental data as given in PubChem BioAssay (NCI).
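Following 48 hours of exposure in 96-well plates, responses at five concentrations were used to interpolate endpoints linearly. GI50: concentration for 50% inhibition of growth. TGI denotes the concentration required for complete inhibition of growth.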

What was measured:
Assay in all cases: NCI anticancer screen, dose series, 48 h
HL-60(TB) leukemia = tested on: HL-60(TB) leukemia
IGROV1 ovarian = tested on: IGROV1 ovarian
K-562 leukemia = tested on: K-562 leukemia
LOX IMVI melanoma = tested on: LOX IMVI melanoma
M14 melanoma = tested on: M14 melanoma
MDA-MB-231 breast = tested on: MDA-MB-231 breast
NCI-H23 lung = tested on: NCI-H23 lung
RXF 393 renal = tested on: RXF 393 renal
SK-MEL-28 melanoma = tested on: SK-MEL-28 melanoma
UACC-62 melanoma = tested on: UACC-62 melanoma

| SMILES | TGI (HL-60(TB) leukemia) | TGI (IGROV1 ovarian) | TGI (K-562 leukemia) | TGI (LOX IMVI melanoma) | TGI (M14 melanoma) | TGI (MDA-MB-231 breast) | TGI (NCI-H23 lung) | TGI (RXF 393 renal) | TGI (SK-MEL-28 melanoma) | TGI (UACC-62 melanoma) | GI50 (HL-60(TB) leukemia) | GI50 (IGROV1 ovarian) | GI50 (K-562 leukemia) | GI50 (LOX IMVI melanoma) | GI50 (M14 melanoma) | GI50 (MDA-MB-231 breast) | GI50 (NCI-H23 lung) | GI50 (RXF 393 renal) | GI50 (SK-MEL-28 melanoma) | GI50 (UACC-62 melanoma) |
| --- | --- | --- | --- | --- | --- | --- | --- | --- | --- | --- | --- | --- | --- | --- | --- | --- | --- | --- | --- | --- |
| O=C(NCCCCCCNC(=O)n1cc(F)c(=O)[nH]c1=O)NCCCOCCOCCOCCOCCOCCOCCOCCOCCOCCOCCOCCOCCOCCOCCOCCOCCOCCOCCOCCOCCOCCCNC(=O)C(O)C(O)C(O)C(O)CO (configuration not stated) | > 100 µM | > 100 µM | > 100 µM | > 100 µM | > 100 µM | > 100 µM | > 100 µM | > 100 µM | > 100 µM | > 100 µM | – | – | – | – | – | – | – | – | – | – |
| O=C(O)/C=C\C(=O)N1C/C(=C\c2ccccc2Cl)C(=O)/C(=C/c2ccccc2Cl)C1 | 11.8 µM | 11.2 µM | 82 µM | 3.71 µM | 10.6 µM | 11.5 µM | 6.41 µM | 3.36 µM | 9.09 µM | 3.97 µM | 3370 nM | 3.66 µM | 2440 nM | 1.56 µM | 3100 nM | 3.52 µM | 2500 nM | 1840 nM | 2.88 µM | 1880 nM |
| COc1cc2c(c(OC)c1)C1c3ccccc3NC(=O)N1CC2 (configuration not stated) | 5.56 µM | > 100 µM | > 100 µM | > 100 µM | 21.4 µM | > 100 µM | > 100 µM | 5.6 µM | 28.5 µM | > 100 µM | 2120 nM | 7.71 µM | 2980 nM | 5.58 µM | 1970 nM | 3.98 µM | 3690 nM | 2380 nM | 9.41 µM | 3080 nM |
| CCCCCCCCN=C(N)c1ccc(N2CCN(c3ccc(C(N)=NCCCCCCCC)cc3)CC2)cc1 | 4.66 µM | > 50 µM | > 50 µM | 9.01 µM | 6.68 µM | > 50 µM | 6.49 µM | 4.49 µM | 17.2 µM | 8.44 µM | 1170 nM | 1.62 µM | 1460 nM | 1.92 µM | 1760 nM | 3.37 µM | 1520 nM | 1130 nM | 2.74 µM | 1920 nM |
| COc1ccc(-c2nc3sc4c(c3c(=O)[nH]2)CCCCCC4)cc1 | > 33.2 µM | > 33.2 µM | > 33.2 µM | > 33.2 µM | > 33.2 µM | > 33.2 µM | > 33.2 µM | 10.4 µM | > 33.2 µM | > 33.2 µM | 874 nM | 6.38 µM | 229 nM | 3.12 µM | 1480 nM | 4.04 µM | > 33200 nM | 1620 nM | 6.67 µM | 908 nM |
| O=c1cc(-c2ccccc2)[nH]c2ccccc12 | > 100 µM | > 33.7 µM | > 100 µM | > 100 µM | > 100 µM | > 62.1 µM | > 100 µM | 9.68 µM | > 100 µM | > 100 µM | 520 nM | 2.35 µM | – | 2.72 µM | 941 nM | 4.09 µM | 1160 nM | 996 nM | – | 519 nM |
| OC(c1cc(-c2ccccc2)nc2ccc(Cl)cc12)C1CCCCN1 (configuration not stated) | 4.82 µM | 4.19 µM | 7.01 µM | 2.91 µM | 3.54 µM | 3.94 µM | 3.42 µM | 3.84 µM | 3.36 µM | 3.68 µM | 2260 nM | 1.9 µM | 2540 nM | 1.55 µM | 1870 nM | 1.78 µM | 1790 nM | 2010 nM | 1.77 µM | 1880 nM |
| CN1CCC(n2cnc(-c3ccc(F)cc3)c2-c2ccnc(NCCO)n2)CC1 | > 25 µM | > 25 µM | > 25 µM | > 25 µM | > 25 µM | > 25 µM | > 25 µM | > 25 µM | > 25 µM | > 25 µM | > 25000 nM | 18.1 µM | 18300 nM | 13.8 µM | > 25000 nM | > 25 µM | > 25000 nM | > 25000 nM | > 25 µM | > 21600 nM |
| Nc1ccccc1C#C/C=C\C#Cc1cccs1 | 12.3 µM | > 39.6 µM | > 100 µM | 14.7 µM | 30.9 µM | 4.47 µM | 41.2 µM | > 83.9 µM | > 67.5 µM | 19.4 µM | 696 nM | 6.36 µM | 3530 nM | 3.55 µM | 10500 nM | – | 14300 nM | 33800 nM | 24.6 µM | 5960 nM |
| NCCOCCOCCNc1nc(Cc2ccccc2)nc(NCCCN2CCCC2=O)n1 | > 100 µM | > 100 µM | > 100 µM | > 100 µM | > 100 µM | > 100 µM | > 100 µM | > 100 µM | > 100 µM | > 100 µM | > 100000 nM | > 100 µM | > 100000 nM | > 100 µM | > 100000 nM | > 100 µM | > 100000 nM | > 100000 nM | > 100 µM | > 100000 nM |
| CN(C)CCCNC(CC#N)CCC#N (configuration not stated) | > 10 µM | > 10 µM | > 10 µM | > 10 µM | > 10 µM | > 10 µM | > 10 µM | > 10 µM | > 10 µM | > 10 µM | – | – | – | – | – | – | – | – | – | – |
| CC(C)c1cc(-c2n[nH]c(=O)n2-c2ccc3c(ccn3C)c2)c(O)cc1O | 21.8 µM | 24.8 µM | > 100 µM | 0.0661 µM | 21.1 µM | 7.52 µM | 26.7 µM | 21.5 µM | 17.2 µM | 0.224 µM | < 10 nM | < 0.0225 µM | < 12.3 nM | 0.0238 µM | < 19.8 nM | < 0.023 µM | 24.7 nM | < 30.4 nM | < 0.0215 µM | < 17.3 nM |
| COc1ccc(-c2c3c(N)nc(-c4ccncc4)nc3nc3c2c(C)nn3-c2ccccc2)cc1 | > 100 µM | > 100 µM | > 100 µM | > 100 µM | > 100 µM | 46.5 µM | > 100 µM | 20.6 µM | 40.5 µM | 51.9 µM | > 100000 nM | 59.3 µM | 3130 nM | 10.1 µM | 17500 nM | 3.71 µM | 9670 nM | 2720 nM | 4.25 µM | 4870 nM |
